Results on 12 molecules are retold here after US8232314B2, “Compounds that protect against sensory hair cell death” (University of Washington, priority 2005, dated 2012).

Entries after “also recorded” stand apart in the source; their conditions may differ.

In data set [1] the test system is zebrafish lateral line hair cells. The experiment in a line: Neomycin-induced hair cell death of zebrafish lateral line hair cells. It is filed as in vivo. The conditions noted are these: 5 dpf larvae, 1 hour exposure to 200 μM, FM 1-43 and Yo-Pro-1 labeling. The protocol:
FIGS. 1A and 1B illustrate labeling and neomycin-induced hair cell death of zebrafish lateral line hair cells. FIG. 1A depicts 5 days post fertilization (dpf) larvae hair cells labeled with FM 1-43 (red) to identify the cytoplasm of hair cells and Yo-Pro-1 (green) labeling the nucleus. […] Cytoplasmic (red) and nuclear fragments (green) are visible in FIG. 1B.
(§1) Larvae were placed in a transfer device fashioned from a 50 ml conical tube with one end cut off and a mesh cover at the bottom. FM 1-43 (n-(3-triethylammoniumpropyl)-4-(4-dibutylamino]-styryl)pyridinium dibromide; Molecular Probes, Eugene, Oreg.) labeling of lateral line neuromasts was achieved by immersing free swimming larvae in 3 μM FM 1-43 in embryo medium for 30 seconds followed by 3 rinses in embryo medium. Using this procedure FM 1-43 is restricted to hair cells in neuromasts (Seiler and Nicolson, J Neurobiol (1999) 41:424-34). Yo-Pro-1 (Molecular Probes, Eugene, Oreg.) labeling of hair cell nuclei in lateral line neuromasts was achieved using a similar technique, incubating larvae in 2 μM Yo-Pro-1 in embryo medium for 30 minutes followed by 3 rinses. Using this procedure only the nuclei of hair cells are labeled.
Neomycin sulfate from a 50 mM stock solution in dH2O (Sigma) was diluted in embryo medium to final concentrations of 25 μM, 50 μM, 100 μM, 200 μM and 400 μM in each well of a six-well culture plate. […]

For data set [2], the system named is lateral line hair cells of zebrafish. The experiment in a line: Protection of zebrafish lateral line hair cells against neomycin-induced hair cell death. It is filed as in vivo, zebrafish (Danio rerio). More on the design: protection of hair cells from neomycin induced hair cell death in the small molecule screen: dose or concentration left out as unconfirmed. As to conditions: for protective against toxic effects of neomycin on hair cells (identified by screening): exemplified aminoglycoside (neomycin); for protection of hair cells from neomycin induced hair cell death in the small molecule screen: 5 dpf larvae, pretreated with compound at 10 μm, exposed to neomycin, hair cells evaluated after 1 hour; for long lasting protection, hair cell counts (FM 1-43) after neomycin: 200 μm neomycin, 24 hours post treatment; for protective effect against neomycin (dose finding): pretreated at 0-200 μM compound, neomycin 200 μM, compared to controls. As to the method: Zebrafish embryos were produced by paired matings of adult fish maintained at 28.5° C. in the University of Washington zebrafish facility. Beginning at 4 days post fertilization (dpf), larvae were fed live paramecia. Larvae were maintained at a density of 50 per 100 mm^2 petri dish in embryo medium (1 mM MgSO4, 120 μM KH2PO4, 74 μM Na2HPO4, 1 mM CaCl2, 500 μM KCl, […], and 500 μM NaHCO3 in dH2O) in a tissue incubator at 28.5° C. All animal procedures were approved by the University of Washington institutional Animal Care and Use Committee,
as §1
(§2) Zebrafish eggs of the AB/Wik wild-type strain were generated and maintained until 5 days post-fertilization temporally corresponding to the developmental maturation of the lateral line hair cells. 5 day postfertilization larvae were prelabeled with the fluorescent dyes FM 1-43, 3 μM (30 sec), and Yo-Pro-1, 2 μM (30 min) to identify the hair cells. Larvae were arrayed into 96 well plates containing embryo media. Synthetic small molecules from the Chembridge Corporation, San Diego, were transferred into the wells for a final concentration of 10 μM (0.05% DMSO). Following a one hour exposure to the compounds fish were treated with neomycin for an additional hour. Larvae were then analyzed in vivo with an epifluorescent Zeiss Axiovert 200M microscope with automated stage and a 40× objective to determine hair cell viability following neomycin exposure.
Neomycin sulfate from a 50 mM stock solution in dH2O (Sigma) was diluted in embryo medium to final concentrations of 25 μM, 50 μM, 100 μM, 200 μM and 400 μM in each well of a six-well culture plate. Following vital dye staining live free-swimming five dpf larvae were transferred from control (neomycin-free) embryo medium to neomycin-containing medium and incubated for 1 h. For time-lapse imaging, neomycin-containing medium was added directly to the imaging chamber.
In order to identify compounds that protect hair cells of the lateral line from the toxic effects of the aminoglycoside neomycin, 10,960 small molecules were screened. 5 dpf larvae were double labeled with the fluorescent dyes FM 1-43 and Yo-Pro-1, pretreated with the compounds at a dose of 10 μm, exposed to […], and their hair cells evaluated after 1 hour, FIG. 1.
To identify the optimal dose for evaluating the compounds' protective effects, larvae were pretreated with both compounds at 0, 1, 10, 50, 100 and 200 μM, and exposed to neomycin at 200 μM and compared to controls.
The neomycin susceptibility of larvae pretreated with 10 μM of compound F5 and controls at 0, 25, 100, 200 and 400 μm neomycin were compared.
To evaluate the protection conferred by compounds F5 and H10, hair cell counts were compared using the fluorescent dye FM 1-43 to identify hair cells in larvae pretreated with compound and controls, exposed to 200 μm neomycin after 24 hours, 48 hours and 72 hours. […] At 48 hours and beyond the protective effects of compound F5 and H10 cannot be determined as the larvae have repopulated the neuromasts with regenerated hair cells, FIG. 5.

The test system is the same in data set [3]. The experiment in a line: Protection against cisplatin-induced lateral line hair cell death. It is filed as in vivo, zebrafish (Danio rerio). As to conditions: for protective against toxic effects of cisplatin on hair cells (identified by screening): exemplified platinum coordination complex (cisplatin). The protocol:
as §1
Cisplatin from a 200 mM stock solution in DMSO (Sigma) was diluted in embryo medium to final concentrations of 300 μM, 500 μM, and 1 mM (0.05% DMSO) in each well of a six-well culture plate. Following vital dye staining live free-swimming five dpf larvae were transferred from control (neomycin-free) embryo medium to cisplatin-containing medium and incubated for 3 h.
To determine if compound F5 is protective against the otoxic effects of cisplatin, larvae were pretreated with compound F5 10 μm for 1 hour, exposed the larvae to 0, 300 μM, 500 μM and 1 mM of cisplatin for 3 hours, counted hair cells and compared to untreated controls.

Data set [4] has as its system hair cells. The experiment in a line: High-throughput screen of FDA approved compound library for protection against aminoglycoside-induced hair cell death. It is filed as in vivo, zebrafish. The conditions noted are these: library of 1040 FDA approved compounds, high-throughput assay. As to the method: as §2
A library of 1040 FDA approved compounds (NINDS Custom Collection II, Microsource, Inc.) were screened using a high-throughput assay.

Data set [5] relates to lateral line hair cells. The experiment in a line: Mechanotransduction-dependent activity of lateral line hair cells measured by FM 1-43 uptake. It is filed as in vivo, zebrafish. The conditions noted are these: pretreated 1 hour at 10 μm, FM 1-43 3 μM for 30 seconds. The protocol: To test whether compounds F5 and H10 inhibit mechanotransduction-dependent activity of lateral line hair cells, larvae were incubated in the dye FM1-43. Larvae were pretreated with each compound for 1 hour at 10 μm and exposed to FM 1-43, 3 μM, for 30 seconds. […] Neither compound F5 nor compound H10 inhibited the uptake of FM1-43, FIG. 7.

As to neomycin, the “hair cell death after neomycin exposure” value in data set [1] is given as “undergo apoptotic death”.
On to `Cc1cccc(C(=O)NC(NC(=S)Nc2sc3c(c2C(N)=O)CCCC3)C(Cl)(Cl)Cl)c1` (centres unmarked) [Compound A, 2-{{({2,2,2-trichloro-1-[(3-methylbenzoyl)amino]ethyl}amino)carbonothioyl]amino}-4,5,6,7-tetrahydro-1-benzothiophene-3-carboxamide], for which the “protective against toxic effects of neomycin on hair cells (identified by screening)” value in data set [2] is given as “protective”. The “protective against toxic effects of cisplatin on hair cells (identified by screening)” value in data set [3] was “protective”.
On to `CCN(CC)CCOC(=O)C(c1ccccc1)C1CCCCC1` (centres unmarked) [Drofenine], for which the “protection against aminoglycoside-induced hair cell death (screen hit)” value (from here on “protection … (screen hit)”) in data set [4] was “protect against aminoglycoside-induced hair cell death”.
For `NC(N)=NC(=O)c1nc(Cl)c(N2CCCCCC2)nc1N` [N,N-hexamethyleneamiloride], the “protection … (screen hit)” value in data set [4] was “protect against aminoglycoside-induced hair cell death”.
Turning to `NC(=O)c1c(NC(=O)CN2CCCCC2)sc2c1CCCC2` [Compound D, 2-[(1-piperidinylacetyl)amino]-4,5,6,7-tetrahydro-1-benzothiophene-3-carboxamide], the “protective against toxic effects of neomycin on hair cells (identified by screening)” value in data set [2] is reported as “protective”. Further, the “protective against toxic effects of cisplatin on hair cells (identified by screening)” value in data set [3] is recorded as “protective”.
As to `NC(=O)c1c(NC(=O)Nc2ccc(Cl)cc2)sc2c1CCCC2` [Compound B, 2-({[(4-chlorophenyl)amino]carbonyl}amino)-4,5,6,7-tetrahydro-1-benzothiophene-3-carboxamide], in data set [2], the “protective against toxic effects of neomycin on hair cells (identified by screening)” value was “protective”. The “protective against toxic effects of cisplatin on hair cells (identified by screening)” value in data set [3] is reported as “protective”.
In the case of `CC(COc1ccccc1)N(CCCl)Cc1ccccc1` (centres unmarked) [Phenoxybenzamine], the “protection … (screen hit)” value in data set [4] is “protect against aminoglycoside-induced hair cell death”.
Turning to `COc1ccc(C(=O)NC(NC(=S)Nc2sc3c(c2C(N)=O)CCCC3)C(Cl)(Cl)Cl)cc1` (centres unmarked) [Compound H10, 2-{[({2,2,2-trichloro-1-[(4-methoxybenzoyl)amino]ethyl}amino)carbonothioyl]amino}-4,5,6,7-tetrahydro-1-benzothiophene-3-carboxamide], in data set [2], the “protection of hair cells from neomycin induced hair cell death in the small molecule screen” value is “protect hair cells from neomycin induced hair cell death”; the “long lasting protection, hair cell counts (FM 1-43) after neomycin” value is listed as “Significant protection; also recorded: protective through 24 hours post neomycin treatment”; the “protective against toxic effects of neomycin on hair cells (identified by screening)” value is listed as “protective”; the “protective effect against neomycin (dose finding)” value is “protective against neomycin”. Also, in data set [2] (larvae pretreated at 0, 1, 10, 50, 100 and 200 μM compound, 200 μM neomycin), the “optimal protective dose against 200 μM neomycin” value is 1 µM. The “protective against toxic effects of cisplatin on hair cells (identified by screening)” value in data set [3] is “protective”. Besides, in data set [5], the “inhibition of FM 1-43 uptake (mechanotransduction-dependent activity)” value is “do not inhibit mechanotransduction-dependent activity; also recorded: do not prevent the rapid uptake of FM1-43”.
In the case of `COc1ccccc1OCCNCC(O)COc1cccc2[nH]c3ccccc3c12` (centres unmarked) [Carvedilol], in data set [4], the “protection … (screen hit)” value is “protect against aminoglycoside-induced hair cell death”.
Turning to `NC(=O)c1c(NC(=O)c2ccc(Cl)c([N+](=O)[O-])c2)sc2c1CCCC2` [Compound C, 2-[(4-chloro-3-nitrobenzoyl)amino]-4,5,6,7-tetrahydro-1-benzothiophene-3-carboxamide], in data set [2], the “protective against toxic effects of neomycin on hair cells (identified by screening)” value was “protective”. In data set [3], the “protective against toxic effects of cisplatin on hair cells (identified by screening)” value is given as “protective”.
Take `CCN1CCc2c(sc(NC(=O)Nc3ccc(Cl)cc3)c2C(N)=O)C1` [Compound F5, 2-({[(4-chlorophenyl)amino]carbonyl}amino)-6-ethyl-4,5,6,7-tetrahydrothieno[2,3-c]pyridine-3-carboxamide]: the “neomycin susceptibility of pretreated larvae versus controls” value in data set [2] (10 μM compound pretreatment, 0, 25, 100, 200 and 400 μm neomycin) is “less susceptible to neomycin than controls; also recorded: protects lateral line hair cells against neomycin”. Also, in data set [2], the “protection of hair cells from neomycin induced hair cell death in the small molecule screen” value is recorded as “protect hair cells from neomycin induced hair cell death”; the “long lasting protection, hair cell counts (FM 1-43) after neomycin” value was “Significant protection; also recorded: protective through 24 hours post neomycin treatment”; the “protective against toxic effects of neomycin on hair cells (identified by screening)” value is reported as “protective”; the “protective effect against neomycin (dose finding)” value is “protective against neomycin”. Further, the “protective against toxic effects of cisplatin on hair cells (identified by screening)” value in data set [3] was “protective”. Moreover, the “protection against cisplatin induced hair cell death (hair cell counts)” value in data set [3] (pretreated 10 μm for 1 hour, 0, 300 μM, 500 μM and 1 mM cisplatin for 3 hours) was “significant protection against cisplatin induced hair cell death; also recorded: protective against cisplatin-induced lateral Sine hair cell death”. For the same molecule, in data set [5], the “inhibition of FM 1-43 uptake (mechanotransduction-dependent activity)” value was “do not inhibit mechanotransduction-dependent activity; also recorded: do not prevent the rapid uptake of FM1-43”.
As to `Nc1c2c(nc3ccccc13)CCCC2` [9-amino-1,2,3,4-tetrahydroacridine], in data set [4], the “protection … (screen hit)” value was “protect against aminoglycoside-induced hair cell death”.
